Test results taken from patent publication US7879996B2, “Water soluble compounds” (priority 2007, dated 2011).

Assay: cationite (cation-exchanging) capacity
Assay type: physicochemical

## 2-([60] fullerene [1′,9′:3,4] cyclohexen-1-y1)-5,10,15,20-(tetra magnesium [(4-(N-(4-carboxy butyl) amino) phenyl 2,3-dicarboxylatel]) porphyrin iron (II) [PMC16]
  cationite capacities: 320-370 meqv/mmol
